Laboratory results reported in patent US20210161993A1, “Method for accelerated healing of burn wounds” (PVP LABS PTE. LTD., priority 2018, published 2021).
Peptide text beside a SMILES is read from it.

How the values were obtained:
II-IIIA degree burns [1] = experiment: Burn model in rats, hexapeptide as topical 0.02-0.5% solution (Example 3); assay type: in vivo, outbred male rats; conditions: for Day on which burn wound hyperaemia score reached 0: after thermal injury; for Day on which burn wound hyperaemia score reached 0 / Burn wound oedema score: topical; for Burn wound oedema score: score 0-3
Description: The efficacy of topical administration of tyrosyl-D-alanyl-glycyl-phenylalanyl-leucyl-arginine in the therapy of thermal burns was evaluated on models of II-IIIA degree burns in 30 outbred male rats. The animals were kept in a vivarium (ambient temperature 19-23° C.) according to Good Laboratory Practices of the Eurasian Economic Union and the applicable guidelines (Reference).
Flat-bottom glass containers of an appropriate diameter filled with liquid paraffin to ⅔ of their volume were used as the thermal agent. The containers were heated on a water bath before application to the skin of the rats, which were randomized to three groups (n=10 in each group): the control group and two experimental groups. Another tissue repair stimulator, dexpanthenol (5% topical ointment), was used as the comparator. All the rats received burns with a standardized area of ≈40 cm^2. Within 20 min. after inflicting the thermal injury, control group animals were treated by applying an aseptic dressing followed by therapy with Iodopiron and Levomecol (group I); animals in the experimental groups additionally received dexpanthenol (group II) or 0.02-0.5% solution of hexapeptide tyrosyl-D-alanyl-glycyl-phenylalanyl-leucyl-arginine (group III consisting of 5 animals that received 0.02% solution and 5 animals that received 0.5% solution).
The experiment involved evaluating the general condition of the animals and performing gross examination to evaluate the severity of tissue oedema in the burn region, hyperaemia, infiltration, appearance of wound discharge and wound epithelialization. These signs were scored as follows: maximum severity of a sign corresponded to a score of 3 points, and absence of a sign to a score of 0. Objective assessment of the healing process was based on planimetric measurements. All the observations were performed on days 1, 3, 5, 7 and 10 of the experiment.
The healing rate was determined using the formula V=(S1−S2)/t, where S1=wound area during the previous measurement, S2=wound area during the next measurement, t=number of days between the previous and the next measurement.
The experiment also included an evaluation of the white blood cell population as a ratio of the total number of lymphocytes to segmented cells in venous blood.

II-IIIA degree burns [2] = experiment: Burn model in rats, hexapeptide as 0.02% and 0.5% gel (Example 5); assay type: in vivo, outbred male rats; conditions: for Average healing rate of burn wounds, difference to control Group I: FIG. 4; for Burn area (planimetry), dynamics of burn wound healing: vs control and Bepanthen
Description: The efficacy of topical administration of hexapeptide tyrosyl-D-alanyl-glycyl-phenylalanyl-leucyl-arginine in the therapy of thermal burns was evaluated on models of II-IIIA degree burns in 40 outbred male rats. The animals were kept in a vivarium according to Good Laboratory Practices of the Eurasian Economic Union and the applicable guidelines (Reference). Flat-bottom glass containers of an appropriate diameter filled with liquid paraffin to ⅔ of their volume were used as a thermal agent. The animals were randomized to four groups (n=10 in each group): Group I was the control group. A popular tissue repair product, Bepanthen (topical cream with 5% dexpanthenol), was used as the comparator. Burn area was standardized at Æ40 cm^2.
An aseptic dressing applied within the first 20 minutes after the burn, followed by therapy with Iodopiron and Levomecol, was used for control Group I. Group II was treated with Bepanthen. Group III received hexapeptide tyrosyl-D-alanyl-glycyl-phenylalanyl-leucyl-arginine as 0.02% topical gel, while Group IV received hexapeptide tyrosyl-D-alanyl-glycyl-phenylalanyl-leucyl-arginine as 0.5% topical gel.
In addition to monitoring the general condition of the animals on days 1, 3, 5, 7 and 10 of the experiment, the healing process was evaluated planimetrically. The healing rate was determined using the formula V=(S1-S2)/t, where S1=wound area during the previous measurement, S2=wound area during the next measurement, t=number of days between the previous and the next measurement.

burn injury = conditions: intraperitoneal; during 14 days after burn injury; Dalargin 0.5 mg/kg; control 60%; cited from earlier work
neutrophils = conditions: cited from earlier work
3rd degree burn = conditions: 0.3 mg subcutaneously; cited from earlier work
linear wounds = experiment: Linear (planar) skin wound model in rats (Example 4); assay type: in vivo, white male Wistar rats
Description: The study was performed in white male Wistar rats. All the animals were randomized to three groups of 13 rats each: (I) control Group (untreated), (II) comparator Group (Bepanthen topical cream with 5% dexpanthenol) and (III) experimental Group (hexapeptide tyrosyl-D-alanyl-glycyl-phenylalanyl-leucyl-arginine). The Group III consisted of 5 animals that received 0.02% solution and 5 animals that received 0.5% solution.
Linear wounds were modeled by an approximately 4-cm-long longitudinal incision in the skin and subcutaneous fat along the midline of the back. After making the incision, the edges of the wound were brought together, and three sutures were applied at an equal distance. The animals received the study drugs starting on the day of the operation; the control Group received a placebo. In each group, 3 rats were intended for a tensometric study, which required euthanasia on day 7 of the experiment. Samples for a histological evaluation were collected immediately after complete healing (on days 25-26).
The study drugs were applied once daily, every day, for 20 days. The wound healing effect was evaluated based on the clinical course (presence of purulent discharge, dynamics of wound edge attachment) on days 4, 7, 15 and 20 of the experiment.

| Compound | Day on which burn wound hyperaemia score reached 0 (II-IIIA degree burns [1]) [days] | Burn wound oedema score (II-IIIA degree burns [1]; day 1 after thermal injury) [points] | Burn wound oedema score (II-IIIA degree burns [1]; day 5 after thermal injury) [points] | Burn wound oedema score (II-IIIA degree burns [1]; day 7 after thermal injury) [points] | Average healing rate of burn wounds, difference to control Group I (II-IIIA degree burns [2]; 0.02% topical gel (Group III)) | Burn area (planimetry), dynamics of burn wound healing (II-IIIA degree burns [2]; 0.02% topical gel (Group III)) | Average healing rate of burn wounds, difference to control Group I (II-IIIA degree burns [2]; 0.5% topical gel (Group IV)) | Burn area (planimetry), dynamics of burn wound healing (II-IIIA degree burns [2]; 0.5% topical gel (Group IV)) | Reduction of burn area, 0.5% gel (Group IV) relative to 0.02% gel (Group III) (II-IIIA degree burns [2]; not statistically significant) | Reduction of hyperaemia compared with Dexpanthenol (II-IIIA degree burns [1]; topical 0.02-0.5% solution) | Average healing rate of burn wounds, difference to control Group I (II-IIIA degree burns [1]; topical 0.02-0.5% solution, FIG. 1) | Burn area (planimetry), dynamics of burn wound healing (II-IIIA degree burns [1]; topical 0.02-0.5% solution, vs control and Dexpanthenol) | Day on which lymphocyte-neutrophil ratio returned to normal (II-IIIA degree burns [1]; venous blood, topical 0.02-0.5% solution, FIG. 2) [days] | Mortality rate (burn injury) [%] | Effect on activated neutrophils and NADPHase activity (neutrophils; blood of healthy humans (n=27)) | Effect on functional and metabolic activity of neutrophils (neutrophils; peripheral blood samples of burn patients (n=15)) | Skin repair and productive inflammation (3rd degree burn) | Tensiometric evaluation, superiority relative to control Group I (linear wounds; day 7 of the experiment) | Healing of the linear wound (visual inspection) (linear wounds; once daily for 20 days, relative to control and comparator, FIG. 3) | Histological evaluation of the scar (linear wounds; samples collected after complete healing (days 25-26)) |
| --- | --- | --- | --- | --- | --- | --- | --- | --- | --- | --- | --- | --- | --- | --- | --- | --- | --- | --- | --- | --- |
| CC(C)(CO)[C@@H](O)C(=O)NCCCO [Dexpanthenol, dexpanthenol] | 7 | 2.0±0.5 | 0.7±0.5 | 0.3±0.3 | – | – | – | – | – | – | – | – | – | – | – | – | – | – | – | – |
| CC(C)C[C@H](NC(=O)[C@H](Cc1ccccc1)NC(=O)CNC(=O)[C@@H](C)NC(=O)[C@@H](N)Cc1ccc(O)cc1)C(=O)N[C@@H](CCCNC(=N)N)C(=O)O [tyrosyl-D-alanyl-glycyl-phenylalanyl-leucyl-arginine] (HELM PEPTIDE1{Y.[dA].G.F.L.R}$$$$V2.0) | 5 | 1.0±0.4 | 0.3±0.2 | 0.0±0.0 | Statistically significant differences | pronounced statistically significant positive dynamics of burn wound healing | Statistically significant differences | pronounced statistically significant positive dynamics of burn wound healing | numerically greater reduction of burn area | statistically significantly more effective | Statistically significant differences | significant reduction of burn area already on day 3 | 7 | 75 | increasing the total number of activated neutrophils and NADPHase activity | normalized elevated functional and metabolic activity of neutrophils | significant acceleration of skin repair and reduced intensity of productive inflammation | over than twofold | more rapid healing of the linear wound | fibrous components were dominant in scar tissue relative to cellular components |
| delta sleep-inducing peptide [DSIP] | – | – | – | – | – | – | – | – | – | – | – | – | – | 20 | – | – | – | – | – | – |
